Data reported in patent publication US11155550B2, “Histone deacetylase inhibitors and methods of use thereof” (Reaction Biology Corp., priority 2018, dated 2021).

What was measured:
Human HDAC1 = target: T1, Human HDAC1 (Homo sapiens, UniProt Q13547); experiment: Biochemical HDAC enzymatic assay, HDAC1; settings: incubation time 120 min
T1 construct: full-length with a C-terminal His-tag and a C-terminal FLAG-tag; His-tag (C); FLAG-tag (C); made in house; host or cells: baculovirus expression system
T1 sequence (Q13547 whole entry): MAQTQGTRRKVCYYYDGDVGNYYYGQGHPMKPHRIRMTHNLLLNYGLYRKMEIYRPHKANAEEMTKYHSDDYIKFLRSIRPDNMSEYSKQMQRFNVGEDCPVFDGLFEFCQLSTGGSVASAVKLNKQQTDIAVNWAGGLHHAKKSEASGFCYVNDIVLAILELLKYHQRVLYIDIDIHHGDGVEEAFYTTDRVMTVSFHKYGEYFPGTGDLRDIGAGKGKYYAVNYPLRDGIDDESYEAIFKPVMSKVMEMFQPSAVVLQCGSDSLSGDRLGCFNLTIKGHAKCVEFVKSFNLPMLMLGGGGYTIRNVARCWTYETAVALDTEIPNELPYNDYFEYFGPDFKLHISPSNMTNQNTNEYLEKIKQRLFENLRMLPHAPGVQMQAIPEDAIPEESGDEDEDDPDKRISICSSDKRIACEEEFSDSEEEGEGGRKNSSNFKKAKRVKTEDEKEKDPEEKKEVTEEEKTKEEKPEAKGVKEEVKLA
Description: (§1) Incubation time for HDAC1/2 is 120 min, and 10 min for other HDACs.
Human HDAC1 (GenBank Accession No. NM_004964), full-length with a C-terminal His-tag and a C-terminal FLAG-tag, MW=56 kDa, was expressed in a baculovirus expression system.
(§2) • I. Compound handling: Testing compounds were dissolved in 100% DMSO to a specific concentration. The serial dilution was conducted by epMotion 5070 in DMSO. • II. HDAC reaction buffer: 50 mM Tris-HCl, pH8.0, 137 mM NaCl, 2.7 mM KCl, and 1 mM MgCl2, Added fresh: 1 mg/ml BSA, 1% DMSO. • III. Substrate: Fluorogenic HDAC General Substrate for HDAC1, 2, 3, 6, 10, 11 ans Sirt1, 2 and 3: Arg-His-Lys-Lys(Ac); HDAC8 only substrate: Arg-His-Lys(Ac)-Lys(Ac); Class2A Substrate (HDAC4, 5, 7 and 9): Acetyl-Lys(trifluoroacetyl)-AMC; Sirt5 substrate: Ac-Lys(succinyl)-AMC. • IV. General Reaction Procedure: (Standard IC50 determination) • a. Delivered 2× enzyme in wells of reaction plate except No Enzyme (No En) control wells. Add buffer in No En wells. • b. Delivered compounds in 100% DMSO into the enzyme mixture by Acoustic technology (Echo550; nanoliter range). Spin down and pre-incubation. • c. Delivered 2× Substrate Mixture (Fluorogenic HDAC Substrate and co-factor (500 μM of Nicotinamide adenine dinucleotide (NAD^+) in all Sirt assay) in all reaction wells to initiate the reaction. Spin and shake. • d. Incubated for 1-2 hr. at 30° C. with seal. • e. Added Developer with Trichostatin A (or TMP269 or NAD^+) to stop the reaction and to generate fluorescent color. • f. Fluorescence was read (excitatory, 360; emission, 460) using the EnVision Multilabel Plate Reader (Perkin Elmer) • g. Endpoint reading was taken for analysis after the development reaches plateau. • V. Data Analysis: The percentages of enzyme activity (relative to DMSO controls) and IC50 values were calculated using the GraphPad Prism 4 program based on a sigmoidal dose-response equation.
(§3) The inhibitory activities of HDAC of compounds of the invention were determined using biochemical HDAC assays. Compounds were tested at the indicated doses in the biochemical assays of HDAC1, HDAC2, HDAC3, HDAC4, HDAC5, HDAC6, HDAC7, HDAC8, HDAC9, HDAC10, or HDAC11 enzyme. The curve fit and IC50 values were calculated using the GraphPad Prism 4 program based on a sigmoidal dose-response equation.
as §2, with “[…]” for “μM”, “equation. […]” for “equation.”

Human HDAC2 = target: T2, Human HDAC2 (Homo sapiens, UniProt Q92769); experiment: Biochemical HDAC enzymatic assay, HDAC2; settings: incubation time 120 min
T2 construct: full-length with a C-terminal His-tag, MW=56 kDa; His-tag (C); made in house; host or cells: baculovirus expression system
T2 sequence (Q92769 whole entry): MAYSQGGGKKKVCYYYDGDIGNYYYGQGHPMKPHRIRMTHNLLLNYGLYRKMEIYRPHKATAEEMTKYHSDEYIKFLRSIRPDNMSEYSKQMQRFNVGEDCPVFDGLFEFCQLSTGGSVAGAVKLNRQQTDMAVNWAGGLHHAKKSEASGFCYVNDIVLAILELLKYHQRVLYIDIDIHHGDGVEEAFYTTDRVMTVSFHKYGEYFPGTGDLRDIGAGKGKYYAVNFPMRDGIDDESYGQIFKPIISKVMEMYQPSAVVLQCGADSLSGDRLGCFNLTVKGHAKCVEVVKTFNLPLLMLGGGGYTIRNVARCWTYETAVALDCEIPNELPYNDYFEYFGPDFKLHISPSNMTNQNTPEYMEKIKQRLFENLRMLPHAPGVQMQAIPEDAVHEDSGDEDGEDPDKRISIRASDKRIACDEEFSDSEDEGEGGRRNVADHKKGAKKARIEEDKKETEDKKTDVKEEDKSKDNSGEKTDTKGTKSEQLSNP
Description: as §1
Human HDAC2 (GenBank Accession No. NM_001527), full-length with a C-terminal His-tag, MW=56 kDa, was expressed in a baculovirus expression system.
as §2, §3
as §2, with “[…]” for “μM”, “equation. […]” for “equation.”

[1] = target: T3, Complex of human HDAC3 and human NCOR2 (Homo sapiens, UniProt O15379); experiment: Biochemical HDAC enzymatic assay, HDAC3; settings: incubation time 10 min
T3 construct: full-length with a C-terminal His tag, MW=49.7 kDa; His tag (C); made in house; host or cells: baculovirus expression system
T3 sequence (O15379 whole entry): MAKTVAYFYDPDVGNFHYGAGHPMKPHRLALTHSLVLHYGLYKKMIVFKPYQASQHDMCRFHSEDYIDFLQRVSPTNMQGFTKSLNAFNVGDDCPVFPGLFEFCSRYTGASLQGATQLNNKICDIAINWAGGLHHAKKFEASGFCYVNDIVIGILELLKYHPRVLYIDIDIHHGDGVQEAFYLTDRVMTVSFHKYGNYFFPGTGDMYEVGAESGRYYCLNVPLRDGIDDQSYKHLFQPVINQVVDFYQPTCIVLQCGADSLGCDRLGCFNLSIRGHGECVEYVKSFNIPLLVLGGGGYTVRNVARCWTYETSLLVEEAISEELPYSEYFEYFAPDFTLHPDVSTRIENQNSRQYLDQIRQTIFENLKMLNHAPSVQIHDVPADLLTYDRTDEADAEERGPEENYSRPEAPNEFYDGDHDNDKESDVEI
T3 sequence (Q9Y618 395-489 partner limits assumed): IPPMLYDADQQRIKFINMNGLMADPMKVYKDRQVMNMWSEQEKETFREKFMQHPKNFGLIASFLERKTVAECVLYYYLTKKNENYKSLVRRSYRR
Description: as §1
Complex of human HDAC3 (GenBank Accession No. NM_003883), full-length with a C-terminal His tag, MW=49.7 kDa, and human NCOR2 (amino acid 395-489) (GenBank Accession No. NM_006312), N-terminal GST tag, MW=37.6 kDa, was co-expressed in a baculovirus expression system.
as §2, §3
• I. Compound handling: Testing compounds were dissolved in 100% DMSO to a specific concentration. The serial dilution was conducted by epMotion 5070 in DMSO. • II. HDAC reaction buffer: 50 mM Tris-HCl, pH8.0, 137 mM NaCl, 2.7 mM KCl, and 1 mM MgCl2, Added fresh: 1 mg/ml BSA, 1% DMSO. • III. Substrate: Fluorogenic HDAC General Substrate for HDAC1, 2, 3, 6, 10, 11 ans Sirt1, 2 and 3: Arg-His-Lys-Lys(Ac); HDAC8 only substrate: Arg-His-Lys(Ac)-Lys(Ac); Class2A Substrate (HDAC4, 5, 7 and 9): Acetyl-Lys(trifluoroacetyl)-AMC; Sirt5 substrate: Ac-Lys(succinyl)-AMC. • IV. General Reaction Procedure: (Standard IC50 determination) • a. Delivered 2× enzyme in wells of reaction plate except No Enzyme (No En) control wells. Add buffer in No En wells. • b. Delivered compounds in 100% DMSO into the enzyme mixture by Acoustic technology (Echo550; nanoliter range). Spin down and pre-incubation. • c. […]

Row | Structure (SMILES) | IC50 (Human HDAC1; Table 2) [µM] | IC50 (Human HDAC2; Table 2) [µM] | IC50 ([1]; Table 2) [µM] | IC50 (Human HDAC1; Table 1) [µM] | IC50 (Human HDAC2; Table 1) [µM] | IC50 ([1]; Table 1) [µM]
1 | O=C(NO)c1ccc(CN2C(=O)c3ccccc3C23CCN(C2CC2)CC3)cc1 [Compound Example 12, 4-((1′-cyclopropyl-3-oxospiro[isoindoline-1,4′-piperidin]-2-yl)methyl)-N-hydroxybenzamide] | > 10 | > 10 | 9.26 |  |  | 
2 | O=C(NO)c1ccc(CN2C(=O)c3ccccc3C23CCNCC3)cc1 [Compound Example 10, N-hydroxy-4-((3-oxospiro[isoindoline-1,4′-piperidin]-2-yl)methyl)benzamide] | 6 | > 10 | 7 |  |  | 
3 | Nc1ccc(-c2cccs2)cc1NC(=O)c1ccc(CN2C(=O)CCCC23CNC3)cc1 [Example 1, N-(2-amino-5-(thiophen-2-yl)phenyl)-4-((6-oxo-2,5-diazaspiro[3.5]nonan-5-yl)methyl)benzamide] |  |  |  | 0.006 | 0.06 | 13
4 | CN1CCC2(CC1)CN(c1ccc(C(=O)Nc3cc(-c4cccs4)ccc3N)cn1)C(=O)O2 [Example 4, N-(2-amino-5-(thiophen-2-yl)phenyl)-6-(8-methyl-2-oxo-1-oxa-3,8-diazaspiro[4.5]decan-3-yl)nicotinamide] |  |  |  | 0.007 | 0.064 | 17.4
5 | Nc1ccc(-c2cccs2)cc1NC(=O)c1ccc(CN2C(=O)CCC23CCNCC3)cc1 [Example 2, N-(2-amino-5-(thiophen-2-yl)phenyl)-4-((2-oxo-1,8-diazaspiro[4.5]decan-1-yl)methyl)benzamide] |  |  |  | 0.014 | 0.146 | > 20
6 | O=C(NO)c1ccc(CN2C(=O)C3(CCOC3)c3ccccc32)cc1 (stereo not drawn) [Compound Example 9] | 9.1 | 17.2 | 21 |  |  | 
7 | O=C(NO)c1ccc(CN2C(=O)c3ccccc3C23OCCO3)cc1 [Compound Example 8, N-hydroxy-4-((3-oxospiro[isoindoline-1,2′-[1,3]dioxolan]-2-yl)methyl)benzamide] | 8 | > 10 | > 10 |  |  | 
8 | Nc1ccc(-c2cccs2)cc1NC(=O)c1ccc(N2CC3(CCNCC3)CCC2=O)nc1 [Example 6, N-(2-amino-5-(thiophen-2-yl)phenyl)-6-(3-oxo-2,9-diazaspiro[5.5]undecan-2-yl)nicotinamide] |  |  |  | 0.085 | 0.61 | > 20
9 | Nc1cc(F)ccc1NC(=O)c1ccc(CN2C(=O)CCCC23CNC3)cc1 [Example 3, N-(2-amino-4-fluorophenyl)-4-((6-oxo-2,5-diazaspiro[3.5]nonan-5-yl)methyl)benzamide] |  |  |  | 20 | 11.8 | 1.9
10 | CN(C)C(=O)N1CCC2(CC1)c1ccccc1C(=O)N2Cc1ccc(C(=O)NO)cc1 [Compound Example 11, 2-(4-(hydroxycarbamoyl)benzyl)-N,N-dimethyl-3-oxospiro[isoindoline-1,4′-piperidine]-1′-carboxamide] | > 10 | > 10 | > 10 |  |  | 
11 | Nc1ccc(-c2ccc(F)cc2)cc1NC(=O)c1ccc(N2CC3(CCOCC3)OC2=O)nc1 [Example 5, N-(4-amino-4′-fluoro-[1,1′-biphenyl]-3-yl)-6-(2-oxo-1,8-dioxa-3-azaspiro[4.5]decan-3-yl)nicotinamide] |  |  |  | 0.023 | 0.115 | > 20
